Data reported in patent US20240287609A1, “COMPOSITIONS AND METHODS FOR LARGE-SCALE IN VIVO GENETIC SCREENING” (UNIVERSITY OF UTAH RESEARCH FOUNDATION, priority 2021, published 2024).
Entries after “also recorded” stand apart in the source; their conditions may differ.

System: zebrafish larvae
Experiment: Light- and Optovin-induced motor response assay
Type: in vivo, zebrafish (Danio rerio)
Settings: 10 μM optovin, wild-type zebrafish, pulsed violet light
Protocol: Light- and Optovin-induced motor response assay. Zebrafish larvae at 3 dpf were arrayed in 96-well plates and treated with 10 μM optovin (Fisher Scientific, cat #490110) in a total volume of 200 μL E3 media. Treated larvae were incubated at […] for 1 h in dark. […] Movement of the larvae was tracked and quantitated following 5×1s pulse of violet light after 10 s interval in the dark.
Identifying the protein targets of small molecules remains one of the major challenges in chemical biology and pharmacology. Herein it was hypothesized that MIC-Drop could be used to identify the targets of small molecules that result in complex behavioral phenotypes in the zebrafish. As proof-of-principle, optovin was utilized, a small molecule agonist of the trpa1b channel that allows photo-activatable behavioral modifications in zebrafish. Droplets targeting the trpa1b channel were spiked into a collection of droplets containing scrambled gRNAs in a 1:20 ratio (FIG. 7B). Droplet-injected embryos were arrayed into 96-well plates, treated with optovin and exposed to violet light flashes while simultaneously recording embryo movement. […] Thus, the MIC-Drop platform was able to be used to identify the target of optovin from among a library of non-target candidates.

## Cc1cc(/C=C2/SC(=S)NC2=O)c(C)n1-c1cccnc1 [optovin]
  motor response of zebrafish after treatment: light-dependent motor response; also recorded: light-dependent motion response
